In publication PMC7496931, “Activation of Sirtuin 2 Inhibitors Employing Photoswitchable Geometry and Aqueous Solubility” (Chemmedchem, 2020):

Key:
[1] = UV/Vis spectra and half-life of thermal Z→E isomerization; assay type: physicochemical; parameters: k of thermal Z→E isomerization (non-linear regression): unit not given here; conditions: for λΔ/max absorption maximum at thermal equilibrium: 50 μM in DMSO/assay buffer; for k of thermal Z→E isomerization (non-linear regression): 50 μM
Description: (§1) Photochemistry: All photoisomerization experiments were conducted under ruby light of 630 nm and total exclusion of daylight. Illumination was executed using a Bio‐Link 254 Crosslinker from Vilber‐Lourmat equipped with six Vilber‐Lourmat T8‐L lamps (8 W, 365 nm). Visible light radiation of 630 nm (ruby) and 452 nm (blue) was derived from a Paulmann FlexLED 3D strip. All compounds were irradiated in solution using spectrophotometric grade solvents. Photoisomerization and UV/Vis‐spectra measurement was conducted in quartz glass cuvettes (114‐QS, Hellma Analytics) at room temperature.
UV/Vis Spectra and Half-Life of Thermal Isomerization
The half-life of the thermal Z→E isomerization after 5 minutes of 365 nm irradiation was determined by UV/Vis-spectroscopy. Therefore, solutions of the respective compounds (50 µM) in 5%, 50% or 90% DMSO in enzyme assay buffer (v/v) were prepared. An initial spectrum of the thermal equilibrium was recorded. After 5 minutes of irradiation with 365 nm the increase of absorbance at the thermal equilibrium maximum (λ∆max) was recorded as exemplified by compound 15c (Figure S3). Absorbance at λ = λ ∆max was plotted as a function of time. Non-linear regression yielded the half-life of the thermal Z→E isomerization (Table S1). For extrapolation of the reaction kinetics, the plateau value was set to the initial absorbance at λ=λ∆max. The following equation was used for non-linear regression:
y = (y0 − Plateau)e−kx + Plateau
Figure S3: Left: UV-Vis spectrum of 15c (50 µM) in assay buffer (5% DMSO, v/v) at the thermal equilibrium (∆) and the photostationary state (PSS) after UV irradiation (365 nm). Right:
Absorbance of 15c (50 µm) in assay buffer (5% DMSO, v/v) at λ∆max = 328 nm after 5 minutes of UV (365 nm) irradiation.
(1 picture or pasted object on this page, not shown here)

[2] = system: urinary bladder cancer cell line RT‐4; experiment: Cell-based activity assay (western blot of acetylation levels); parameters: species or system human; conditions: RT-4 cells, 50 μM, 24 h, compounds irradiated (365 nm) prior to incubation
Description: Reductive stability of 15 c, 15 f and 20 a in the presence of the cellular reductant glutathione (5 mM) was confirmed by HPLC analysis (Figure S5, Table S2). For the cell‐based activity assay, we illuminated the compounds solved in DMSO with UV light (365 nm) prior to incubation with the cells. […] As expected, 15 c and 15 f increased the levels of acetylated lysines H3K18 and H3K56, which are both affirmed substrates of Sirt2. In addition, we found H4K8 hyperacetylation even though this site is usually not affected by sirtuin catalysed deacetylation, indicating a further mode of action. […] In Figure 6, we show the relative results, whereby the acetylation product was related to total target protein and to the vehicle control. Again, we found an increase in acetylated histones induced by 15 c and 15 f which proves activity of these two compounds in living cells.
Figure 6 Relative acetylation levels of protein targets after incubation with compounds at 50 μM for 24 h in urinary bladder cancer cell line RT‐4 (mean of n=2). […]
Cell-Based Activity Assay
To qualify inhibitory activity of compounds on sirtuins we used the western blot technique.
Therefore, we used precast “Mini-Protean TGX Stain-Free Gels” and corresponding “Trans-Blot Turbo Transfer Pack Mini” PVDF membranes (Biorad, Germany). For sample preparation, […]
Sirt2 in our cell line stock (Data not shown), obtained from “Deutsche Sammlung von Mikroorganismen und Zellkulturen” (DSMZ), Germany. Cells were grown in RPMI 1640 cell medium supplemented with 10% fetal bovine serum and 1% penicillin/streptomycin purchased from PAN Biotec, Germany and stored in a humidified incubator at 37 °C with 5% CO2 atmosphere. For sample preparation, cells were harvested with Trypsin/EDTA and counted in a Beckman’s Coulter Counter. In six well plates, […] were seeded out in 3 mL medium and let allow to attach for 24 h. Stock solutions of compounds (1000-fold) were prepared with DMSO and illuminated with UV light (365 nm) for 5 min. Then, cells were exposed to compounds at a final concentration of 50 µM and incubated for 24 h. Cells were detached with Trypsin/EDTA and washed with phosphate buffered saline (PBS) by centrifugation at 500 g for 5 min and resuspended in PBS. Cell pellets were lysed with a lysis buffer containing Tris […]
and freshly added 1% protease inhibitor cocktail (Sigma Aldrich, Germany) on ice, followed by sonification for 30 minutes. The protein concentration was determined by the Bradford method against bovine serum albumin (BSA) as standard. Each slot of the precast gel was loaded with 30 µg protein followed by an electrophoretic separation and a transfer onto PVDF membranes.
Blots were blocked with 10% non-fat milk powder in Tris-buffered saline containing 20 mM Tris, 145 mM NaCl and Tween 0.5% (TBST) for 2 h and incubated with primary antibody in 1:1000 dilutions (in TBST and 1% BSA) over night at 4 °C. After washing procedure, blots were incubated with secondary antibody conjugated with horse radish peroxidase (1:5000 in TBST and 1% BSA) for 2 h. All used antibodies were obtained from cell signalling (UK): anti ac.H3K9 […]
anti ac.α-tubulin (#5335), anti α-tubulin (#2125) and anti rabbit-HRP (#7074). Target protein bands were detected with Clarity Western ECL Substrate (Biorad, Germany) and recorded at an Advanced Fluorescence Imager (INTAS, Germany). Band intensity was related to internal standard of the TGX Stain-Free gels as loading control.
In order to verify the conformations of Z-15c and Z-15f obtained from our molecular docking experiments, a two-dimensional dihedral analysis was performed using MOE with 3-(2-phenyldiazenyl)-pyridine as reference compound. Both dihedrals were rotated by 360° in 5° steps. At each step, the potential energy was calculated with AMBER force field parameters and AM1-BCC partial charges applied. The diazenyl double bond of both compounds is nearly […]

[3] = Photoisomer distribution (PSD) by HPLC-ELSD; assay type: physicochemical; conditions: HPLC in MeOH/water, ELSD; for E/Z [%] PSD @ 365 nm: after 365 nm irradiation; for E/Z [%] PSD @ 452 nm: after 452 nm irradiation
Description: as §1

Row | Structure (SMILES) | melting point | λΔ/max absorption maximum at thermal equilibrium ([1]; 5 % DMSO (v/v)) [nm] | k of thermal Z→E isomerization (non-linear regression) ([1]; 5 % DMSO (v/v) in assay buffer) | H4K8 acetylation [2] | acetylation level of α-tubulin [2] | expression of total histone H3 [2] | expression of total α-tubulin protein [2] | level of acetylated lysine H3K18 [2] | level of acetylated lysine H3K56 [2] | total H4 [2] | E/Z [%] PSD @ 365 nm [3] | E/Z [%] PSD @ 452 nm [3] | λΔ/max absorption maximum at thermal equilibrium ([1]; 90 % DMSO (v/v)) [nm] | k of thermal Z→E isomerization (non-linear regression) ([1]; 90 % DMSO (v/v) in assay buffer)
1 | CC(C)(C)OC(=O)NCc1ccc(/N=N/c2cncc(C(N)=O)c2)cc1 [15 c] | 212.1 °C (dec.) | 329 | 0.002173 | hyperacetylation | none of the compounds influenced | no effect | no effect | increased | increased | slight increase | 11/89 | 86/14 | – | –
2 | CCCCCCCCCC(=O)NCc1ccc(/N=N/c2cncc(C(N)=O)c2)cc1 [15 f] | 259.5 °C | – | – | hyperacetylation | none of the compounds influenced | no effect | no effect | increased | increased | slight increase | 5/95 | 79/21 | 333 | 0.006796
